Results reported in patent US20030064414A1, “Rapid assessment of coagulation activity in whole blood” (priority 2001, published 2003).

System: whole blood
Test: Recalcified clotting time of citrated whole blood, aprotinin and lipidated tissue factor added at assay initiation
Format: biochemical
Excerpt: In the previous examples, blood was always collected in the presence of a calcium-chelating anticoagulant (citrate) and contact pathway inhibitor (aprotinin or corn trypsin inhibitor). It would be desirable for certain applications, for example hospital emergency department use, if blood could be […] into a standard commercially available and FDA-approved sodium citrate tube, such as that supplied by Becton Dickinson, Franklin Lakes, N.J. and Greiner America, Monroe, N.C. and the contact pathway inhibitor added concomitantly during assay initiation with lipidated tissue factor and divalent calcium. In this example, blood from a single donor was collected into sterile evacuated-tubes containing 3.2% buffered sodium citrate (Greiner). In FIG. 7A, clotting was initiated with calcium in the presence or absence of 15,000 KIU/ml aprotinin (Centerchem Inc., Norwalk, Conn.). […] In contrast, blood recalcified in the absence of aprotinin clotted in 250 sec. Thus, the contact pathway of blood coagulation has been abolished. FIG. 7B depicts a dose-response to Lovenox® when citrated blood was recalcified in the presence of 15,000 U/ml aprotinin and 10 units of lipidated tissue factor.
(>1500 sec) to 180 sec. The correlation (R^2) of clotting time to Enoxaparin® dose was 0.9915. The slope was 550 and intercept 210 sec. […]

Row | Substance | recalcified clotting time (citrated blood, calcium and 15,000 KIU/ml aprotinin, no tissue factor, 1500 sec maximal clotting time, FIG. 7A) | recalcified clotting time (citrated blood recalcified with 15,000 U/ml aprotinin and 10 units of lipidated tissue factor)
1 | aprotinin | > 1500 s | 
2 | lipidated tissue factor: lipidated recombinant tissue factor with synthetic phospholipids, procoagulant that initiates the extrinsic pathway |  | 180 s
